This is an account of results in patent US20250353891A1 (MEDIMMUNE LIMITED, priority 2022, published 2025).

Each structure is given as a SMILES string. pEC50: −log10 of the molar value. Where two headings read alike, the source gives them in different places. Starred links: 1 amine or outer side, 2 acyl side, 3 side chain; linkers in the order of their positions; H or OH if unused. Non-standard residues stand in square brackets, D forms with d. Residues, ends and D or L forms follow the SMILES beside them. Groups on a side chain read outwards from the residue. *: point of attachment. C20 diacid = O=C(O)CCCCCCCCCCCCCCCCCCC(=O)*; C18 diacid = O=C(O)CCCCCCCCCCCCCCCCC(=O)*; Dip = N[C@H](C(=O)O)C(c1ccccc1)c1ccccc1; γGlu = O=C(O)[C@H](CCC(=O)[*:2])N[*:1]; Stearoyl = CCCCCCCCCCCCCCCCCC(=O)*; αMeF = C[C@](N)(Cc1ccccc1)C(=O)O; PEG2 = NCCOCCOCCC(=O)O; AEEA = NCCOCCOCC(=O)O; Aib = CC(C)(N)C(=O)O

In experiment [1] the target is human glucagon receptor (hGCGR) (Homo sapiens, UniProt P47871). As to the kind of experiment: cAMP production (HTRF) in CHO cells expressing hGCGR. The experiment is classed as cell-based. Further details: expressed in transfected cells. As to conditions: cAMP in CHO hGCGR cells, geometric mean, read-out: hGluc-R EC50. An outline of the steps: (§1)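 Cells were resuspended in assay buffer at batch-optimized density, typically 1×10^5 cells/mL for hGLP-1R and 2×10^5 cells/mL for hGCGR. After 30 min incubation at room temperature with compound, cAMP was measured by two-step HTRF. EC50 values came from 4-parameter logistic fits of % Delta F.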
A general note: Cyclic AMP is a second messenger, typically raised through Gs and lowered through Gi signalling.

Experiment [2] concerns the target human GLP-1 receptor (hGLP-1R) (Homo sapiens, UniProt P43220). Nature of the experiment: cAMP production (HTRF) in CHO cells expressing hGLP-1R. The experiment is classed as cell-based. As to conditions: for pEC50: cAMP in CHO hGLP-1R cells, geometric mean, read-out: hGLP-1R EC50; for % Relative Potency Ratio: % GLP-1R activity relative to GLP-1 / % GlucR activity relative to glucagon. The arrangement: expressed in transfected cells. The method in brief: as §1

[3] abbreviates: Table 6, peptides modified at position 17.
Setting [4] is: Table 7, peptides modified at position 20.

Chain of human GLP-1 receptor (hGLP-1R) (P43220 24-463): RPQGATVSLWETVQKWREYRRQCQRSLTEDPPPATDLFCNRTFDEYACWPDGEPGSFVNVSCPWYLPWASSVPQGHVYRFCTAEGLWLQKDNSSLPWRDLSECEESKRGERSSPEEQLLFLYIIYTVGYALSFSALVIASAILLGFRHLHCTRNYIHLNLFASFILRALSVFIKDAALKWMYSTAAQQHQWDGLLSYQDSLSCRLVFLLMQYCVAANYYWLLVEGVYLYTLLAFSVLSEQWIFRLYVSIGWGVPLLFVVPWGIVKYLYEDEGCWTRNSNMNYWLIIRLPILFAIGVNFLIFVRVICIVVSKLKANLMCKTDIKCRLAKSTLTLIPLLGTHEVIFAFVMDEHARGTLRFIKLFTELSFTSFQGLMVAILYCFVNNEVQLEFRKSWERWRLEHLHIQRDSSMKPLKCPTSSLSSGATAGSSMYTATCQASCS
Chain of human glucagon receptor (hGCGR) (P47871 26-477): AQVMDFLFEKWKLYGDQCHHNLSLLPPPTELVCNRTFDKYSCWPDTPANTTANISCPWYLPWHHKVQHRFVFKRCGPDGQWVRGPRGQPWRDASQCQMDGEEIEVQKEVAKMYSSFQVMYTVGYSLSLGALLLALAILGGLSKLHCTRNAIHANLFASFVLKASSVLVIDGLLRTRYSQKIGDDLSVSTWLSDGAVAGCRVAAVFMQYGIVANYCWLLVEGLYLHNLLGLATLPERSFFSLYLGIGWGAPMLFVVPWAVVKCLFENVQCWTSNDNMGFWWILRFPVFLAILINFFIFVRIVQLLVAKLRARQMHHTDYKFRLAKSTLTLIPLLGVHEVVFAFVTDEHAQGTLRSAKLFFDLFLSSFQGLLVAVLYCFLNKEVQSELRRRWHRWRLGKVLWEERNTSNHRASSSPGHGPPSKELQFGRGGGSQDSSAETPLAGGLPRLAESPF

For `CC(C)C[C@H](NC(=O)[C@H](Cc1c[nH]c2ccccc12)NC(=O)[C@H](CCCNC(=N)N)NC(=O)[C@@H](NC(=O)[C@H](Cc1ccccc1)NC(=O)[C@H](CC(=O)O)NC(=O)[C@H](CCC(N)=O)NC(=O)[C@H](C)NC(=O)[C@H](CCCNC(=N)N)NC(=O)[C@H](CCCCNC(=O)CC[C@H](NC(=O)CC[C@H](NC(=O)COCCOCCNC(=O)COCCOCCNC(=O)CC[C@H](NC(=O)CC[C@H](NC(=O)CCCCCCCCCCCCCCCCC(=O)O)C(=O)O)C(=O)O)C(=O)O)C(=O)O)NC(=O)[C@H](CO)NC(=O)[C@H](CC(=O)O)NC(=O)[C@H](CC(C)C)NC(=O)[C@](C)(Cc1ccccc1)NC(=O)[C@H](CCCCN)NC(=O)[C@H](CO)NC(=O)[C@@H](NC(=O)[C@H](CC(=O)O)NC(=O)[C@H](CO)NC(=O)[C@@H](NC(=O)[C@H](Cc1ccccc1)NC(=O)[C@@H](NC(=O)CNC(=O)[C@H](CCC(N)=O)NC(=O)C(C)(C)NC(=O)[C@@H](N)Cc1c[nH]cn1)[C@@H](C)O)[C@@H](C)O)C(C)C)C(C)C)C(=O)N[C@@H](CC(C)C)C(=O)N[C@@H](CCC(=O)O)C(=O)NC(C)(C)C(=O)NCC(=O)O` [Peptide 138] (H-H[Aib]QGTFTSDVSK[αMeF]LDSK([γGlu-γGlu-AEEA-AEEA-γGlu-γGlu-C18 diacid])RAQDFVRWLLE[Aib]G-OH; N-terminus assumed), the pEC50 in experiment [1] (setting [3]) was 9.74; in experiment [2] (setting [3]), 9.98. For the same compound, the “% Relative Potency Ratio” value in experiment [2] (Table 6) is listed as 3.5.
Regarding `CC[C@H](C)[C@H](NC(=O)C(C)(C)NC(=O)[C@H](CCC(N)=O)NC(=O)[C@@H](NC(=O)[C@](C)(Cc1ccccc1)NC(=O)[C@H](CC(=O)O)NC(=O)[C@H](CCCCNC(=O)COCCOCCNC(=O)COCCOCCNC(=O)CC[C@H](NC(=O)CCCCCCCCCCCCCCCCC(=O)O)C(=O)O)NC(=O)[C@H](C)NC(=O)[C@H](C)NC(=O)[C@H](CCCNC(=N)N)NC(=O)[C@H](CO)NC(=O)[C@H](CC(=O)O)NC(=O)[C@H](CC(C)C)NC(=O)[C@H](Cc1ccc(O)cc1)NC(=O)[C@H](CCCCN)NC(=O)[C@H](CO)NC(=O)[C@@H](NC(=O)[C@H](CC(=O)O)NC(=O)[C@H](CO)NC(=O)[C@@H](NC(=O)[C@](C)(Cc1ccccc1)NC(=O)[C@H](CO)NC(=O)CNC(=O)[C@H](Cc1c[nH]cn1)NC(=O)C(C)(C)NC(=O)[C@@H](N)Cc1c[nH]cn1)[C@@H](C)O)C(C)C)C(C)C)C(=O)N[C@@H](C)C(=O)N[C@@H](CC(N)=O)C(=O)N[C@H](C(N)=O)[C@@H](C)O` [Peptide 286] (H-H[Aib]HGS[αMeF]TSDVSKYLDSRAAK([AEEA-AEEA-γGlu-C18 diacid])D[αMeF]VQ[Aib]IANT-NH2; N-terminus assumed), the pEC50 in experiment [1] (setting [4]) was 10.28; in experiment [2] (setting [4]), 10.50. Further, the “% Relative Potency Ratio” value in experiment [2] (Table 7) was determined as 3.3.
For the compound `CC[C@H](C)[C@H](NC(=O)[C@H](Cc1c[nH]c2ccccc12)NC(=O)[C@H](CCC(=O)O)NC(=O)[C@@H](NC(=O)[C@H](Cc1ccccc1)NC(=O)[C@H](CC(=O)O)NC(=O)[C@H](CCCCNC(=O)COCCOCCNC(=O)COCCOCCNC(=O)CC[C@H](NC(=O)CCCCCCCCCCCCCCCCC(=O)O)C(=O)O)NC(=O)[C@H](C)NC(=O)[C@H](C)NC(=O)[C@H](CCC(N)=O)NC(=O)[C@H](CO)NC(=O)[C@H](CC(=O)O)NC(=O)[C@H](CC(C)C)NC(=O)[C@](C)(Cc1ccccc1)NC(=O)[C@H](CCCCN)NC(=O)[C@H](CO)NC(=O)[C@@H](NC(=O)[C@H](CC(=O)O)NC(=O)[C@H](CO)NC(=O)[C@@H](NC(=O)[C@](C)(Cc1ccccc1)NC(=O)[C@H](CO)NC(=O)CNC(=O)[C@H](Cc1c[nH]cn1)NC(=O)C(C)(C)NC(=O)[C@@H](N)Cc1c[nH]cn1)[C@@H](C)O)C(C)C)C(C)C)C(=O)N[C@@H](C)C(=O)N[C@@H](CC(N)=O)C(=O)N[C@H](C(N)=O)[C@@H](C)O` [Peptide 209] (H-H[Aib]HGS[αMeF]TSDVSK[αMeF]LDSQAAK([AEEA-AEEA-γGlu-C18 diacid])DFVEWIANT-NH2), the negative logarithm of the EC50 (pEC50) in experiment [1] (setting [4]) was 10.37; in experiment [2] (setting [4]), 9.90. The “% Relative Potency Ratio” value in experiment [2] (Table 7) is 0.7.
The matching figures for `CC[C@H](C)[C@H](NC(=O)C(C)(C)NC(=O)[C@H](CCC(N)=O)NC(=O)[C@@H](NC(=O)[C@H](Cc1ccccc1)NC(=O)[C@H](CC(=O)O)NC(=O)[C@H](CCCCNC(=O)COCCOCCNC(=O)COCCOCCNC(=O)CC[C@H](NC(=O)CC[C@H](NC(=O)CCCCCCCCCCCCCCCCCCC(=O)O)C(=O)O)C(=O)O)NC(=O)[C@H](C)NC(=O)[C@H](C)NC(=O)[C@H](CCCNC(=N)N)NC(=O)[C@H](CO)NC(=O)[C@H](CC(=O)O)NC(=O)[C@H](CC(C)C)NC(=O)[C@](C)(Cc1ccccc1)NC(=O)[C@H](CCCCN)NC(=O)[C@H](CO)NC(=O)[C@@H](NC(=O)[C@H](CC(=O)O)NC(=O)[C@H](CO)NC(=O)[C@@H](NC(=O)[C@](C)(Cc1ccccc1)NC(=O)[C@H](CO)NC(=O)CNC(=O)[C@H](Cc1c[nH]cn1)NC(=O)C(C)(C)NC(=O)[C@@H](N)Cc1c[nH]cn1)[C@@H](C)O)C(C)C)C(C)C)C(=O)N[C@@H](C)C(=O)N[C@@H](CC(N)=O)C(=O)N[C@H](C(N)=O)[C@@H](C)O` [Peptide 221] (H-H[Aib]HGS[αMeF]TSDVSK[αMeF]LDSRAAK([AEEA-AEEA-γGlu-γGlu-C20 diacid])DFVQ[Aib]IANT-NH2; N-terminus assumed): 9.91, 9.91 and 2.0.
Regarding `CCCCCCCCCCCCCCCCCC(=O)N[C@@H](CCC(=O)N[C@@H](CCC(=O)NCCOCCOCCC(=O)NCCOCCOCCC(=O)NCCCC[C@H](NC(=O)[C@H](CO)NC(=O)[C@H](CC(=O)O)NC(=O)[C@H](CC(C)C)NC(=O)[C@@H](NC(=O)[C@H](CCCCN)NC(=O)[C@H](CO)NC(=O)[C@@H](NC(=O)[C@H](CC(=O)O)NC(=O)[C@H](CO)NC(=O)[C@@H](NC(=O)[C@](C)(Cc1ccccc1)NC(=O)[C@H](CO)NC(=O)CNC(=O)[C@H](CCC(N)=O)NC(=O)C(C)(C)NC(=O)[C@@H](N)Cc1c[nH]cn1)[C@@H](C)O)C(C)C)C(c1ccccc1)c1ccccc1)C(=O)N[C@@H](C)C(=O)N[C@@H](C)C(=O)N[C@@H](CCC(N)=O)C(=O)N[C@@H](CC(=O)O)C(=O)N[C@@](C)(Cc1ccccc1)C(=O)N[C@H](C(=O)N[C@@H](CCC(N)=O)C(=O)NC(C)(C)C(=O)N[C@H](C(=O)N[C@@H](C)C(=O)N[C@@H](CC(N)=O)C(N)=O)[C@@H](C)CC)C(C)C)C(=O)O)C(=O)O` [Peptide 66] (H-H[Aib]QGS[αMeF]TSDVSK[Dip]LDSK([PEG2-PEG2-γGlu-γGlu-Stearoyl])AAQD[αMeF]VQ[Aib]IAN-NH2; N-terminus assumed), the pEC50 was 11.19 in experiment [1] (setting [3]) and 11.82 in experiment [2] (setting [3]). In addition, in experiment [2] (Table 6), the “% Relative Potency Ratio” value was found to be 8.3.

One may read the pEC50 as the EC50 on a negative log10 scale, so that one unit is a factor of ten.
